# Test results as given in patent US10952963B2, “Ready to use liquid RECK formulation” (QuVa Pharma, Inc., priority 2018, dated 2021).
# Settings: for pH that provides for acceptable stability: pH 4.8
# Description: Multiple antioxidants, chelating agents, and buffers were evaluated to stabilize both epinephrine and ketorolac, which include: sodium bisulfite, sodium metabisulfite, EDTA Sodium Dihydrate (i.e., EDTA Sodium), citric acid, sodium phosphate dibasic, and PEG 400. Solution pH values were evaluated from a pH of 3.9-6.0.
SMILES,pH range of maximum stability,pH at which substantial degradation occurs,pH that provides for acceptable stability,pH at which rate of degradation increases,pH at which substance tended to degrade,sodium metabisulfite concentration in the presence of which the substance degrades substantially
CCCN1CCCC[C@H]1C(=O)Nc1c(C)cccc1C [ropivacaine],3-4,–,–,–,–,–
Clc1cccc(Cl)c1N=C1NCCN1 [clonidine],3-4,–,–,–,–,–
CNC[C@H](O)c1ccc(O)c(O)c1 [epinephrine],3-4,greater than 4,about 4.8,–,–,–
O=C(c1ccccc1)c1ccc2n1CCC2C(=O)O (stereo not shown) [ketorolac],6-7,–,about 4.8,less than 5,less than 4.5,≥ 1 mg/mL
